According to patent US11071768B2, “Caspofungin compositions for inhalation” (TRILOGY THERAPEUTICS, INC., priority 2018, dated 2021):
≈ marks a conversion by molar mass, not a printed value. Each block holds one compound with its values, some of them ahead of it. Starred links: 1 amine or outer side, 2 acyl side, 3 side chain; linkers in the order of their positions; H or OH if unused. Positions of bridges follow the written chain, without caps; N, C: chain ends. Non-standard residues stand in square brackets, D forms with d. Residues, ends and D or L forms follow the SMILES beside them. *: point of attachment. hTyr(3S-OH,4S-OH,3'-OSO3H) = N[C@H](C(=O)O)[C@H](O)[C@@H](O)c1ccc(O)c(OS(=O)(=O)O)c1; pTerphenylCO(4''-OnC5H11) = CCCCCOc1ccc(-c2ccc(-c3ccc(C(=O)*)cc3)cc2)cc1; Orn(4R-OH,5R-OH) = O=C([C@H](C[C@@H](O)[C@@H](O)N[*:3])N[*:1])[*:2]; hTyr(3S-OH,4S-OH) = N[C@H](C(=O)O)[C@H](O)[C@@H](O)c1ccc(O)cc1; Pro(3S-OH,4S-Me) = C[C@H]1CN[C@H](C(=O)O)[C@H]1O; X1 = CCCCCOc1ccc(-c2cc(-c3ccc(C(=O)*)cc3)no2)cc1; Gln(3R-OH) = NC(=O)C[C@@H](O)[C@H](N)C(=O)O; Hyp = O=C(O)[C@@H]1C[C@@H](O)CN1

Experiments:
[1] = rat; cited from earlier work
[2] = test system: Candida albicans ATCC44858; assay: In vitro broth microdilution assay (CLSI); assay type: cell-based
Method: (§1) The antifungal potency of the test article(s) was measured using the in vitro broth microdilution assay under assay conditions described by the Clinical and Laboratory Standards Institute. In this assay, the Minimum Inhibitory Concentration (MIC) is defined as the lowest concentration of an agent that causes a specified reduction in visible growth of the microorganism. The Minimal Effective Concentration (MEC) is defined as the lowest concentration of an agent that leads to the growth of small, rounded, compact hyphal forms as compared to the hyphal growth seen in the growth control well. In this study, MIC values are determined for the 9 Candida species and Cryptococcus neoformans. MEC values are determined for 3 filamentous fungi (2 Aspergillus fumigatus and Trichophyton rubrum). Test articles were prepared as the following:
(§2) The 3.2 mg/mL working stock solution was 2-fold diluted serially in 0.9% NaCl to prepare a total of eleven 50-fold stock solutions, concentrations ranging from 3.2 to 0.003 mg/mL. A 4 μL aliquot of each dilution was added to 196 μL of broth medium seeded with the organism suspension in wells of a 96 well plate (fungal cell count: 1×10^3 to 1×10^4 colony forming units per mL). The final volume was 200 μL in each well. Following incubation, the test plates were visually examined and wells were scored for growth or complete growth inhibition to define the MIC values. Microscopy examination was used to determine the MEC values. Each test substance was evaluated in duplicate and the results below are the duplicate test values. Vehicle-control and an active reference agent were used as blank and positive controls, respectively.

[3] = test system: Candida albicans ATCC90028; assay: In vitro broth microdilution assay (CLSI); assay type: cell-based
Method: as §1, §2

[4] = test system: Candida albicans Azole-R (20183.073); assay: In vitro broth microdilution assay (CLSI); assay type: cell-based
Method: as §1, §2

[5] = test system: Candida albicans Azole-R (20186.025); assay: In vitro broth microdilution assay (CLSI); assay type: cell-based
Method: as §1, §2

[6] = test system: Candida glabrata ATCC 36583; assay: In vitro broth microdilution assay (CLSI); assay type: cell-based
Method: as §1, §2

[7] = test system: Candida krusei ATCC 6258; assay: In vitro broth microdilution assay (CLSI); assay type: cell-based
Method: as §1, §2

[8] = test system: Candida parapsilosis ATCC 22019; assay: In vitro broth microdilution assay (CLSI); assay type: cell-based
Method: as §1, §2

[9] = test system: Candida tropicalis ATCC 200956; assay: In vitro broth microdilution assay (CLSI); assay type: cell-based
Method: as §1, §2

[10] = test system: Trichophyton rubrum ATCC 10218; assay: In vitro broth microdilution assay (CLSI); assay type: cell-based
Method: as §1, §2

[11] = cited from earlier work

Structure (SMILES): CCCCCOc1ccc(-c2cc(-c3ccc(C(=O)N[C@H]4C[C@@H](O)[C@@H](O)NC(=O)[C@@H]5[C@@H](O)[C@@H](C)CN5C(=O)[C@H]([C@H](O)CC(N)=O)NC(=O)[C@H]([C@H](O)[C@@H](O)c5ccc(O)c(OS(=O)(=O)O)c5)NC(=O)[C@@H]5C[C@@H](O)CN5C(=O)[C@H]([C@@H](C)O)NC4=O)cc3)no2)cc1 [Micafungin, micafungin] (X1-[Orn(4R-OH,5R-OH)]T[Hyp][hTyr(3S-OH,4S-OH,3'-OSO3H)][Gln(3R-OH)][Pro(3S-OH,4S-Me)]; lactam 1-C)
- Exposure in the kidney relative to plasma [1]: 3.4 fold
- Exposure in the liver relative to plasma [1]: 1.6 fold
- Exposure in the lung relative to plasma [1]: 2.9 fold

- MIC [2]: 0.125 µg/mL (≈ 0.135 µM)
- MIC ([3]; Candida albicans ATCC90028): 0.125 µg/mL (≈ 0.135 µM)
- MIC ([3]; Candida albicans ATCC90028 + 50% human serum): 0.25 µg/mL
- MIC [4]: 0.125 µg/mL (≈ 0.135 µM)
- MIC [5]: 0.25 µg/mL (≈ 0.271 µM)
- MIC [6]: 0.125 µg/mL (≈ 0.135 µM)
- MIC [7]: 0.25 µg/mL (≈ 0.271 µM)
- MIC [8]: 0.25 µg/mL (≈ 0.271 µM)
- MIC [9]: 1 µg/mL (≈ 1.08 µM)
- MIC [10]: 0.125 µg/mL (≈ 0.135 µM)
Structure (SMILES): C[C@@H]1[C@H](O)[C@@H](C)/C=C/C=C/C=C/C=C/C=C/C=C/C=C/[C@H](O[C@@H]2O[C@H](C)[C@@H](O)[C@H](N)[C@@H]2O)C[C@@H]2O[C@](O)(C[C@@H](O)C[C@@H](O)[C@H](O)CC[C@@H](O)C[C@@H](O)CC(=O)O[C@H]1C)C[C@H](O)[C@H]2C(=O)O [amphotericin B]

Structure (SMILES): CCCCCOc1ccc(-c2ccc(-c3ccc(C(=O)N[C@H]4C[C@@H](O)[C@@H](O)NC(=O)[C@@H]5[C@@H](O)[C@@H](C)CN5C(=O)[C@H]([C@@H](C)O)NC(=O)[C@H]([C@H](O)[C@@H](O)c5ccc(O)cc5)NC(=O)[C@@H]5C[C@@H](O)CN5C(=O)[C@H]([C@@H](C)O)NC4=O)cc3)cc2)cc1 [anidulafungin] ({pTerphenylCO(4''-OnC5H11)}-[Orn(4R-OH,5R-OH)]T[Hyp][hTyr(3S-OH,4S-OH)]T[Pro(3S-OH,4S-Me)]; lactam 1-C)
- Time that levels stay above MICs for common pathogens ([11]; rat tissues): 72 h
- Exposure in tissues (liver, lung, spleen, kidney) relative to plasma ([11]; rat): 9-12 fold
- Time to peak concentrations in tissues ([11]; rat): ≤ 30 min
